Patent US9572816B2, “Method of treatment of disease” (TECHNION RESEARCH AND DEVELOPMENT FOUNDATION LTD., priority 2012, dated 2017)

Experiments:
[1] = tested on: rat model of STZ-induced diabetes; assay: Cataract by lens opacity (slit-lamp biomicroscope) in rat model of STZ-induced diabetes; assay type: in vivo, Sprague Dawley rats; conditions: 7 weeks
Method: (§1) Eight to ten-week old male Sprague Dawley rats were used in the model. Rat handling was performed according to guidelines of the National Institute of Health (NIH) and the Association for Assessment and Accreditation of Laboratory Animal Care (AAALAC). Diabetes was induced by intraperitoneal injection of 50 mg/kilogram (mg/kg) STZ (in 0.1 molar citrate buffer), which is a dose generally sufficient to destroy all insulin-producing beta cells and induce a diabetic disease-like state. Two weeks later, glucose levels were measured and rats displaying a level lower than 200 mg per deciliter (dL) were excluded from the study. The remaining rats were randomly divided into 3 groups (according to body weight and serum glucose levels): a control group, a corrole group and an LPA group. Each group received a 7-week course of treatment. The control group (13 rats) received water with no active ingredient. The corrole group (14 rats) received 20 mg/kg/day of the corrole designated 1-Fe. 1-Fe was synthesized using the procedure described in Mahammed et al. (Mahammed, Goldberg, & Gross, 2001). […]
Cataract was evaluated a day before termination of the trial in live rats by measurement of opacities of the rat's lenses of each eye with a slit-lamp biomicroscope following the application of tropicamide eye drops. […]
A rat having a score in at least one eye of 1 or higher was considered to have developed a cataract. The percentage of rats in each group having a cataract (cataract incidence) as determined by opacity measurements for each group is shown in FIG. 1A. […]
The degree of cataract for both eyes as determined by averaging each group's cataract scoring of both eyes of each rat as determined by opacity measurement is shown in FIG. 1B.
As cataract may develop at a different rate in each of the animals' eyes, the degree of cataract for the rats' worse eye was evaluated. The degree of cataract for the rats' worse eye was determined by averaging each group's cataract scoring of each animal's worse eye as determined by opacity measurement, and is shown in FIG. 1C. […]

[2] = tested on: rat model of STZ-induced diabetes; assay: Cataractous damage by histological examination (H&E) of lenses in rat model of STZ-induced diabetes; assay type: in vivo, Sprague Dawley rats; conditions: 7 weeks
Method: as §1, with “treatment.” for “treatment. The control group (13 rats) received water with no active ingredient. The corrole group (14 rats) received 20 mg/kg/day of the corrole designated 1-Fe. 1-Fe was synthesized using the procedure described in Mahammed et al. (Mahammed, Goldberg, & Gross, 2001).”
The development of cataractous damage was further evaluated by histological examination. […]
A rat having a score in at least one eye of 1 or higher was considered to have suffered a cataractous damage. The percentage of rats in each group having a cataractous damage (cataract damage incidence) as determined by histological examination of lenses for each group is shown in FIG. 1D.
The degree of cataractous damage for both eyes as determined by averaging each group's cataract scoring of both eyes of each rat as determined by histological examination is shown in FIG. 1E. […]

[3] = Body weight in rat model of STZ-induced diabetes; assay type: in vivo, Sprague Dawley rats; conditions: STZ-diabetic rats, 7-week treatment
Method: as §1, with “2001). The LPA group (13 rats) received 50 mg/kg/day LPA. LPA was formulated for administration by dissolving in 1 millimolar sodium hydroxide (NaOH) which was then brought to a pH of 7.5.” for “2001).”

[4] = tested on: rat model of STZ-induced diabetes; assay: Creatinine clearance rate (CrCl), kidney damage in rat model of STZ-induced diabetes; assay type: in vivo; conditions: after 7 weeks of treatment
Method: as §1, with “treatment.” for “treatment. The control group (13 rats) received water with no active ingredient. The corrole group (14 rats) received 20 mg/kg/day of the corrole designated 1-Fe. 1-Fe was synthesized using the procedure described in Mahammed et al. (Mahammed, Goldberg, & Gross, 2001).”
A rat model was performed as in example 1, but rather than testing for eye damage, blood testing was used to test for creatinine levels. […] Creatinine clearance rate (CrCl), an established measure for evaluating renal function, was calculated for rats in all groups of the trial by dividing the amount of creatinine in the urine (mg/minute) by its concentration in the serum (mg/ml).
CrCl was measured: a) before induction of diabetes; b) 2 weeks later when the treatment commenced; and c) following 7 weeks of treatment (9 weeks from STZ injection).

development of cataract = conditions: clinical studies, reported in the literature; cited from earlier work
DN in a rat model = conditions: administered in levels sufficient to be present in the kidney; cited from earlier work

## O=C(O)CCCCC1CCSS1 (stereo not drawn) [LPA, alpha lipoic acid]
[1]; 1-Fe 20 mg/kg/day (p=0.014), LPA 50 mg/kg/day (p=0.1)
  Reduction in degree of cataract, both eyes (opacity score 0-4), relative to control group: 28%
[1]; LPA 50 mg/kg/day
  Degree of cataract in worse eye relative to control group (in words): not significantly reduced
[1]; relative to control group, LPA 50 mg/kg/day
  Effect on cataract incidence (opacity measurement): did not have a significant effect
[2]; 1-Fe 20 mg/kg/day, LPA 50 mg/kg/day
  Reduction in degree of cataractous damage, both eyes (histology score 0-4), relative to control group: 32%
[2]; corrole p=0.073
  Cataract damage incidence by histological examination, relative to control group: minimal
[3]
  Body weight change during the treatment phase: significant weight loss
[4]; STZ-diabetic rats, 1-Fe 20 mg/kg/day, LPA 50 mg/kg/day
  CrCl: 1.36 mL/min
[4]; 1-Fe p=0.027, LPA p=0.078
  Increase in creatinine clearance relative to the control group: 89%

## CC1=C(/C=C/C(C)=C/C=C/C(C)=C/C=C/C=C(C)/C=C/C=C(C)/C=C/C2=C(C)CCCC2(C)C)C(C)(C)CCC1 [beta-carotene]
Development of cataract
  Effect on the development of cataract: no significant effect

## COc1cc(/C=C/C(=O)CC(=O)/C=C/c2ccc(O)c(OC)c2)ccc1O [curcumin]
DN in a rat model
  Treating DN in a rat model: not successful

## O=C1O[C@H]([C@@H](O)CO)C(O)=C1O [vitamin C]
Development of cataract
  Effect on the development of cataract: no significant effect

## vitamin E
Development of cataract
  Effect on the development of cataract: no significant effect
